The record followed here is patent US9371296B2, “Bicyclic 1,3,4-oxadiazole derivatives as sphingosine-1-phosphate receptors' modulators” (Allergan, Inc., priority 2014, dated 2016).

For this test, the target named is T1, human S1P1 receptor (Homo sapiens, UniProt P21453).
T1 construct: expressed in transfected cells; membranes used
T1 sequence (P21453 whole entry): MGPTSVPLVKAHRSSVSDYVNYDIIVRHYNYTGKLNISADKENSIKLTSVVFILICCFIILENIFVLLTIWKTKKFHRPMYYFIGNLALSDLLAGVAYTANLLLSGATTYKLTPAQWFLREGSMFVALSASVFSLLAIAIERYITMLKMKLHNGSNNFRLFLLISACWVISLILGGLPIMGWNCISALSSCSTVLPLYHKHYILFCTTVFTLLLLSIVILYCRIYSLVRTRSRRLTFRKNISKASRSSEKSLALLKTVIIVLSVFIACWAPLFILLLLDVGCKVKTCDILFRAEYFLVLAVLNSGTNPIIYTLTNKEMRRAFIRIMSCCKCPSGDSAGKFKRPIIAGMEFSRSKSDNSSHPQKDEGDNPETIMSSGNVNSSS
Briefly: GTP γ35S binding assay for S1P1 activity. In kind it is biochemical. Conditions: 5 microgram membrane protein, test compounds 0.08 to 5,000 nM, 30 min at 25° C. The procedure: Compounds were synthesized and tested for S1P1 activity using the GTP γ^35S binding assay. These compounds may be assessed for their ability to activate or block activation of the human S1P1 receptor in cells stably expressing the S1P1 receptor.
GTP γ^35S binding was measured in medium containing (mM) HEPES 25, pH 7.4, MgCl2 10, NaCl 100, dithiothreitol 0.5, digitonin 0.003%, 0.2 nM GTP γ^35S, and 5 microgram membrane protein in a volume of 150 microliters. Test compounds were included in the concentration range from 0.08 to 5,000 nM unless indicated otherwise. Membranes were incubated with 100 μM 5′-adenylylimmidodiphosphate for 30 min, and subsequently with 10 micromolar GDP for 10 min on ice. Drug solutions and membrane were mixed, and then reactions were initiated by adding GTP γ^35S and continued for 30 min at 25° C. Reaction mixtures were filtered over Whatman GF/B filters under vacuum, and washed three times with 3 mL of ice-cold buffer (HEPES 25, pH7.4, MgCl2 10 and NaCl 100). Filters were dried and mixed with scintillant, and counted for ^35S activity using a β-counter. Agonist-induced GTP γ^35S binding was obtained by subtracting that in the absence of agonist. Binding data were analyzed using a non-linear regression method. In case of antagonist assay, the reaction mixture contained 10 nM […] in the presence of test antagonist at concentrations ranging from 0.08 to 5000 nM.
Take `CCC/C(=C\c1nnc(-c2ccc(CNCCC(=O)O)c3ncccc23)o1)c1ccccc1` [Compound 6, 3-{[(5-{5-[(1E)-2-phenylpent-1-en-1-yl]-1,3,4-oxadiazol-2-yl}quinolin-8-yl)methyl]amino}propanoic acid]: it took 150 nM to reach a half-maximal effect (EC50).
Next, `CCCC/C(=C\c1nnc(-c2ccc(CN3CC(C(=O)O)C3)c3ncccc23)o1)c1ccccc1` [Compound 16, 1-[(5-{5-[(1E)-2-phenylhex-1-en-1-yl]-1,3,4-oxadiazol-2-yl}quinolin-8-yl)methyl]azetidine-3-carboxylic acid]: 29 nM.
The figure for `CCCCCC(Cc1nnc(-c2ccc(CN3CC(C(=O)O)C3)c3ccccc23)o1)c1ccccc1` (stereo not drawn) [Compound 17, 1-({4-[5-(2-phenylheptyl)-1,3,4-oxadiazol-2-yl]naphthalen-1-yl}methyl)azetidine-3-carboxylic acid] is 942 nM; for `CCCCCC(Cc1nnc(-c2ccc(CNCCC(=O)O)c3ccccc23)o1)c1ccccc1` (stereo not drawn) [Compound 10, 3-[({4-[5-(2-phenylheptyl)-1,3,4-oxadiazol-2-yl]naphthalen-1-yl}methyl)amino]propanoic acid] it is 320 nM; for `CCCCC(Cc1nnc(-c2ccc(CNCCCP(=O)(O)O)c3ncccc23)o1)c1ccccc1` (stereo not drawn) [Compound 21, {3-[({5-[5-(2-phenylhexyl)-1,3,4-oxadiazol-2-yl]quinolin-8-yl}methyl)amino]propyl}phosphonic acid] it is 1.05 nM.
The figure for `CCCCCC(Cc1nnc(-c2ccc(CN3CC(C(=O)O)C3)c3ncccc23)o1)c1ccccc1` (stereo not drawn) [Compound 24, 1-({5-[5-(2-phenylheptyl)-1,3,4-oxadiazol-2-yl]quinolin-8-yl}methyl)azetidine-3-carboxylic acid] is 1090 nM; for `CCCCCC(Cc1nnc(-c2ccc(CNCCCP(=O)(O)O)c3ccccc23)o1)c1ccccc1` (stereo not drawn) [Compound 9, {3-[({4-[5-(2-phenylheptyl)-1,3,4-oxadiazol-2-yl]naphthalen-1-yl}methyl)amino]propyl}phosphonic acid] it is 14 nM; for `CCCC(Cc1nnc(-c2ccc(CNCCCP(=O)(O)O)c3ncccc23)o1)c1ccccc1` (stereo not drawn) [Compound 11, {3-[({5-[5-(2-phenylpentyl)-1,3,4-oxadiazol-2-yl]quinolin-8-yl}methyl)amino]propyl}phosphonic acid] it is 0.26 nM.
`CCCC/C(=C\c1nnc(-c2ccc(CNCCCP(=O)(O)O)c3ncccc23)o1)c1ccccc1` [Compound 7, (3-{[(5-{5-[(1E)-2-phenylhex-1-en-1-yl]-1,3,4-oxadiazol-2-yl}quinolin-8-yl)methyl]amino}propyl) phosphonic acid] came in with an EC50 of 0.5 nM.
The figure for `CCC/C(=C\c1nnc(-c2ccc(CN3CC(C(=O)O)C3)c3ccccc23)o1)c1ccccc1` [Compound 13, 1-[(4-{5-[(1E)-2-phenylpent-1-en-1-yl]-1,3,4-oxadiazol-2-yl}naphthalen-1-yl)methyl]azetidine-3-carboxylic acid] is 607 nM; for `CCCCC(Cc1nnc(-c2ccc(CN3CC(C(=O)O)C3)c3ncccc23)o1)c1ccccc1` (stereo not drawn) [Compound 23, 1-({5-[5-(2-phenylhexyl)-1,3,4-oxadiazol-2-yl]quinolin-8-yl}methyl)azetidine-3-carboxylic acid] it is 376 nM.
The figure for `CCC/C(=C\c1nnc(-c2ccc(CNCCC(=O)O)c3ccccc23)o1)c1ccccc1` [Compound 2, 3-{[(4-{5-[(1E)-2-phenylpent-1-en-1-yl]-1,3,4-oxadiazol-2-yl}naphthalen-1-yl)methyl]amino}propanoic acid] is 571 nM; for “(E)-1-((5-(5-(2-phenylpent-1-en-1-yI)-1,3,4-oxadiazol-2-yl)quinolin-8-yl)methyl)azetidine-3-carboxylic acid [Compound 15]” it is 163 nM.
Molecule `CCCC(Cc1nnc(-c2ccc(CN3CC(C(=O)O)C3)c3ncccc23)o1)c1ccccc1` (stereo not drawn) [Compound 18, 1-({5-[5-(2-phenylpentyl)-1,3,4-oxadiazol-2-yl]quinolin-8-yl}methyl)azetidine-3-carboxylic acid] returned a concentration giving a half-maximal response (EC50) of 461 nM.
The figure for `CCCCCC(Cc1nnc(-c2ccc(CNCCCP(=O)(O)O)c3ncccc23)o1)c1ccccc1` (stereo not drawn) [Compound 22, {3-[({5-[5-(2-phenylheptyl)-1,3,4-oxadiazol-2-yl]quinolin-8-yl}methyl)amino]propyl}phosphonic acid] is 2.87 nM.
The figure for `CCC/C(=C\c1nnc(-c2ccc(CNCCCP(=O)(O)O)c3ccccc23)o1)c1ccccc1` [Compound 1, (3-{[(4-{5-[(1E)-2-phenylpent-1-en-1-yl]-1,3,4-oxadiazol-2-yl}naphthalen-1-yl)methyl]amino}propyl)phosphonic acid] is 27 nM; for `CCCC/C(=C\c1nnc(-c2ccc(CNCCC(=O)O)c3ncccc23)o1)c1ccccc1` [Compound 8, 3-{[(5-{5-[(1E)-2-phenylhex-1-en-1-yl]-1,3,4-oxadiazol-2-yl}quinolin-8-yl)methyl]amino}propanoic acid] it is 33 nM; for `CCCCCC(Cc1nnc(-c2ccc(CNCCC(=O)O)c3ncccc23)o1)c1ccccc1` (stereo not drawn) [Compound 20, 3-[({5-[5-(2-phenylheptyl)-1,3,4-oxadiazol-2-yl]quinolin-8-yl}methyl)amino]propanoic acid] it is 417 nM.
The figure for `CCC/C(=C\c1nnc(-c2ccc(CNCCCP(=O)(O)O)c3ncccc23)o1)c1ccccc1` [Compound 5, (3-{[(5-{5-[(1E)-2-phenylpent-1-en-1-yl]-1,3,4-oxadiazol-2-yl}quinolin-8-yl)methyl]amino}propyl) phosphonic acid] is 0.61 nM; for `CCCC/C(=C\c1nnc(-c2ccc(CNCCCP(=O)(O)O)c3ccccc23)o1)c1ccccc1` [Compound 3, (3-{[(4-{5-[(1E)-2-phenylhex-1-en-1-yl]-1,3,4-oxadiazol-2-yl}naphthalen-1-yl)methyl]amino}propyl) phosphonic acid] it is 2.52 nM.
`CCCC(Cc1nnc(-c2ccc(CNCCC(=O)O)c3ncccc23)o1)c1ccccc1` (stereo not drawn) [Compound 12, 3-[({5-[5-(2-phenylpentyl)-1,3,4-oxadiazol-2-yl]quinolin-8-yl}methyl)amino]propanoic acid] came in with an EC50 of 340 nM.
Next, `CCCC/C(=C\c1nnc(-c2ccc(CNCCC(=O)O)c3ccccc23)o1)c1ccccc1` [Compound 4, 3-{[(4-{5-[(1E)-2-phenylhex-1-en-1-yl]-1,3,4-oxadiazol-2-yl}naphthalen-1-yl)methyl]amino}propanoic acid]: 85 nM.
Next, `CCCCC(Cc1nnc(-c2ccc(CNCCC(=O)O)c3ncccc23)o1)c1ccccc1` (stereo not drawn) [Compound 19, 3-[({5-[5-(2-phenylhexyl)-1,3,4-oxadiazol-2-yl]quinolin-8-yl}methyl)amino]propanoic acid]: 257 nM; `CCCC/C(=C\c1nnc(-c2ccc(CN3CC(C(=O)O)C3)c3ccccc23)o1)c1ccccc1` [Compound 14, 1-[(4-{5-[(1E)-2-phenylhex-1-en-1-yl]-1,3,4-oxadiazol-2-yl}naphthalen-1-yl)methyl]azetidine-3-carboxylic acid]: 156 nM.
